Results as given in the NIST ThermoML archive (doi:10.1021/je9003959).
± gives the expanded uncertainty stated by the source.

Test: xn = mol fraction of the nth substance listed
Settings: 101 kPa, Liquid; for viscosity: Capillary tube (Ostwald / Ubbelohde) method; for speed of sound: Cylindrical cavity resonance method

CCN1CCCC1=O [1-ethyl-2-pyrrolidinone] + O
Settings	mass density [kg/m3]	speed of sound [m/s]	viscosity [mPa·s]
293 K, x1 = 0.022	1003.49 ± 1.3	1574.8 ± 4.2	1.593 ± 0.036
293 K, x1 = 0.05	1010.45 ± 1.4	1651.9 ± 2.4	2.368 ± 0.048
293 K, x1 = 0.1	1020.31 ± 1.5	1711.9 ± 1.3	4.149 ± 0.05
293 K, x1 = 0.2	1026.26 ± 1.6	1712.2 ± 1.4	6.159 ± 0.062
293 K, x1 = 0.3	1023.9 ± 1.6	1677.6 ± 1.5	6.189 ± 0.067
293 K, x1 = 0.4	1022.18 ± 1.7	1640.4 ± 1.6	5.349 ± 0.066
293 K, x1 = 0.5	1019.16 ± 1.7	1610.7 ± 1.7	4.506 ± 0.054
293 K, x1 = 0.6	1014.04 ± 1.7	1583.1 ± 1.8	3.639 ± 0.045
293 K, x1 = 0.7	1010.43 ± 1.7	1562.1 ± 1.9	3.13 ± 0.037
293 K, x1 = 0.8	1006.66 ± 1.7	1541.7 ± 1.9	2.671 ± 0.034
293 K, x1 = 0.9	1003.19 ± 1.8	1526.1 ± 2	2.458 ± 0.031
293 K, x1 = 1	1000.55 ± 1.8	1511.6 ± 2.1	2.133 ± 0.027
298 K, x1 = 0.022	1001.76 ± 1.2	1580 ± 3.8	1.433 ± 0.031
298 K, x1 = 0.05	1007.34 ± 1.3	1648.9 ± 2.1	2.047 ± 0.038
298 K, x1 = 0.1	1016.76 ± 1.4	1699.4 ± 1.3	3.418 ± 0.045
298 K, x1 = 0.2	1021.82 ± 1.6	1694.2 ± 1.4	4.849 ± 0.062
298 K, x1 = 0.3	1019.33 ± 1.6	1658.6 ± 1.5	5.029 ± 0.063
298 K, x1 = 0.4	1016.58 ± 1.6	1621.2 ± 1.6	4.386 ± 0.056
298 K, x1 = 0.5	1014.6 ± 1.6	1591.5 ± 1.7	3.856 ± 0.047
298 K, x1 = 0.6	1009.45 ± 1.6	1564 ± 1.8	3.244 ± 0.039
298 K, x1 = 0.7	1005.98 ± 1.6	1542.9 ± 1.9	2.836 ± 0.034
298 K, x1 = 0.8	1002.26 ± 1.7	1522.6 ± 1.9	2.43 ± 0.03
298 K, x1 = 0.9	998.84 ± 1.7	1507 ± 2	2.21 ± 0.028
298 K, x1 = 1	996.24 ± 1.8	1492.5 ± 2.1	2.022 ± 0.026
303 K, x1 = 0.022	999.83 ± 1.2	1583.9 ± 3.4	1.254 ± 0.026
303 K, x1 = 0.05	1002.82 ± 1.3	1645.1 ± 1.9	1.767 ± 0.031
303 K, x1 = 0.1	1013.12 ± 1.4	1686.7 ± 1.3	2.842 ± 0.035
303 K, x1 = 0.2	1017.34 ± 1.5	1675.8 ± 1.4	4.088 ± 0.045
303 K, x1 = 0.3	1014.71 ± 1.5	1639.3 ± 1.5	4.164 ± 0.048
303 K, x1 = 0.4	1012.16 ± 1.5	1601.7 ± 1.6	3.621 ± 0.043
303 K, x1 = 0.5	1010 ± 1.6	1572.1 ± 1.7	3.28 ± 0.038
303 K, x1 = 0.6	1004.1 ± 1.6	1544.6 ± 1.8	2.86 ± 0.034
303 K, x1 = 0.7	1001.5 ± 1.6	1523.6 ± 1.9	2.527 ± 0.03
303 K, x1 = 0.8	997.83 ± 1.7	1503.4 ± 1.9	2.218 ± 0.028
303 K, x1 = 0.9	994.48 ± 1.8	1487.9 ± 2	2.011 ± 0.025
303 K, x1 = 1	991.93 ± 1.9	1473.3 ± 2.1	1.832 ± 0.024
313 K, x1 = 0.022	995.35 ± 1.3	1588.3 ± 2.8	0.9966 ± 0.019
313 K, x1 = 0.05	997.46 ± 1.2	1634.8 ± 1.6	1.327 ± 0.022
313 K, x1 = 0.1	1005.63 ± 1.3	1660.4 ± 1.3	2.051 ± 0.027
313 K, x1 = 0.2	1008.28 ± 1.4	1639.1 ± 1.4	2.879 ± 0.034
313 K, x1 = 0.3	1005.38 ± 1.4	1600.7 ± 1.5	2.966 ± 0.035
313 K, x1 = 0.4	1001.82 ± 1.4	1562.8 ± 1.6	2.6 ± 0.031
313 K, x1 = 0.5	1000.71 ± 1.4	1533.3 ± 1.7	2.509 ± 0.029
313 K, x1 = 0.6	995 ± 1.6	1506 ± 1.8	2.262 ± 0.027
313 K, x1 = 0.7	992.48 ± 1.7	1485.3 ± 1.9	2.04 ± 0.025
313 K, x1 = 0.8	988.94 ± 1.8	1465.2 ± 1.9	1.777 ± 0.022
313 K, x1 = 0.9	985.71 ± 1.9	1449.9 ± 2	1.702 ± 0.021
313 K, x1 = 1	983.26 ± 2	1435.3 ± 2.1	1.621 ± 0.021
323 K, x1 = 0.022	989.91 ± 1.3	1588.3 ± 2.2	0.8044 ± 0.015
323 K, x1 = 0.05	991.01 ± 1.3	1622.3 ± 1.4	1.073 ± 0.014
323 K, x1 = 0.1	997.84 ± 1.3	1633.2 ± 1.3	1.358 ± 0.02
323 K, x1 = 0.2	999.06 ± 1.3	1602.1 ± 1.5	2.164 ± 0.029
323 K, x1 = 0.3	995.92 ± 1.4	1561.9 ± 1.6	2.234 ± 0.028
323 K, x1 = 0.4	992.73 ± 1.5	1523.7 ± 1.6	2.014 ± 0.023
323 K, x1 = 0.5	991.3 ± 1.5	1494.4 ± 1.7	1.986 ± 0.024
323 K, x1 = 0.6	985.81 ± 1.7	1467.5 ± 1.8	1.856 ± 0.022
323 K, x1 = 0.7	983.37 ± 1.8	1447.1 ± 1.9	1.67 ± 0.02
323 K, x1 = 0.8	979.96 ± 1.9	1427.3 ± 1.9	1.54 ± 0.019
323 K, x1 = 0.9	976.89 ± 2	1412.2 ± 2	1.435 ± 0.018
323 K, x1 = 1	974.56 ± 2.1	1398 ± 2.1	1.358 ± 0.018
